These results are taken from patent US11969506B2, “Lipid nanoparticle formulation” (ModernaTX, Inc., priority 2017, dated 2024).

In experiment [1] the test system is HeLa cells. Description: Luciferase activity in HeLa cells transfected with mRNA-lipoplexes in the presence of bioactive lipids (FIGS. 9A-9C, 9F). Format: cell-based. As for the experimental part: FIG. 9A is a graph illustrating luciferase activity in HeLa cells transfected with mRNA-lipoplexes at a dose of 50 ng mRNA in the presence of bioactive lipids (black) normalized to mRNA-lipoplex only control (red), which was set at 100%. Data represented as mean±SEM; n=3. […] FIG. 9B is a graph illustrating luciferase activity in HeLa cells transfected with mRNA-lipoplexes at a dose of 50 ng mRNA in the presence of varying concentrations of MK-571 (blue) relative to mRNA-lipoplex only control (red). Data represented as mean±SD; n=3. […] FIG. 9C is a graph illustrating luciferase activity in HeLa cells transfected with mRNA-lipoplexes at a dose of 50 ng mRNA in the presence of varying concentrations of Arachidonic Acid (blue) relative to mRNA-lipoplex only control (red). Data represented as mean±SD; n=3. […] FIG. 9F is a graph illustrating luciferase activity in HeLa cells transfected with mRNA-lipoplexes at a dose of 50 ng mRNA in the presence of varying concentrations of MK-571 or its analogues, Montelukast, Pranlukast, and Zafirlukast relative to mRNA-lipoplex only control. Data represented as mean±SD; n=3.

Experiment [2] has as its system HeLa cells. Put plainly: Luciferase activity in HeLa cells transfected using LNPs with MK-571 (FIGS. 9D, 9E). Format: cell-based. As to conditions: 24 hr pre-incubation with MK-571 (5 μM), increasing doses of mRNA. As for the experimental part:
FIG. 9D is a graph illustrating luciferase activity at increasing doses of mRNA in HeLa cells transfected using LNPs, with and without 24 hr pre-incubation with MK-571 (5 μM). Data represented as mean±SD; n=3.
FIG. 9E is a graph illustrating luciferase activity at increasing doses of mRNA in HeLa cells transfected using LNPs and MK-571 loaded LNPs. Data represented as mean±SD; n=3.

Turning to `CCCCC/C=C\C/C=C\C/C=C\C/C=C\CCCC(=O)O` [Arachidonic Acid], the “luciferase activity (protein expression) relative to mRNA-lipoplex only control” value with HeLa cells [1] (50 ng mRNA, varying concentrations) was “failed to elicit improvement in protein expression”.
Consider `CN(C)C(=O)CCSC(SCCC(=O)O)c1cccc(/C=C/c2ccc3ccc(Cl)cc3n2)c1` (stereo not shown) [MK-571], for which the “transfection (luciferase activity) using LNPs” value with HeLa cells [2] was “able to enhance transfection at all doses of mRNA”. The “protein expression relative to mRNA-lipoplex only control” value in the experiment with HeLa cells [1] (50 ng mRNA, concentration of 5 μM) is reported as “doubling the protein expression”. For the same compound, the “enhancement of protein expression over the control” value with HeLa cells [1] (mRNA-lipoplexes 50 ng mRNA, lipoplex only control set at 100%) is listed as “approximately 40%”.
